According to ChEMBL document CHEMBL1212897 (J Med Chem, 2010):
pIC50: −log10 of the molar value.

Columns and labels:
Glucocorticoid receptor = molecular target: T1, Glucocorticoid receptor (Homo sapiens, UniProt P04150)
T1 sequence (P04150 whole entry): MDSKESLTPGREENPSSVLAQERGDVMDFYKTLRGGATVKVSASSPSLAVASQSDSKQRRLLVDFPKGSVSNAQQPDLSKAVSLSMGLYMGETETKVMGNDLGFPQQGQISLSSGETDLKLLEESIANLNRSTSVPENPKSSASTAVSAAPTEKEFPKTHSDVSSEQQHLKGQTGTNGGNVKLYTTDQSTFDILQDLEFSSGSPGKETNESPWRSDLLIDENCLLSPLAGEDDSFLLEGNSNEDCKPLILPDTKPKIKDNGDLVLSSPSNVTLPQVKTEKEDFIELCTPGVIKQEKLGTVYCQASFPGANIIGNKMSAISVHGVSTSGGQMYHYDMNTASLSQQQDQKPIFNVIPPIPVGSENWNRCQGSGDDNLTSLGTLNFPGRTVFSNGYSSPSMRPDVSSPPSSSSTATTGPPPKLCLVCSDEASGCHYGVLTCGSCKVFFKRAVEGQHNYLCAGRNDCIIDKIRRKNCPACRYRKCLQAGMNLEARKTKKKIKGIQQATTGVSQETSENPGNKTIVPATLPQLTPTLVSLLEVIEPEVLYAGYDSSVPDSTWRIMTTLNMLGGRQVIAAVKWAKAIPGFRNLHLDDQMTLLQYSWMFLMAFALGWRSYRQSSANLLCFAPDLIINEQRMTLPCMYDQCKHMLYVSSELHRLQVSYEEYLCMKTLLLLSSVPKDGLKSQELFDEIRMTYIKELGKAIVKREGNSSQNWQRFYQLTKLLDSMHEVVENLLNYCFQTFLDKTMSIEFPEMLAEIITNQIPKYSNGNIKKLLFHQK

Estrogen receptor = molecular target: T2, Estrogen receptor (Homo sapiens, UniProt P03372); assay: Antagonist activity at estrogen receptor; assay type: functional
T2 sequence (P03372 whole entry): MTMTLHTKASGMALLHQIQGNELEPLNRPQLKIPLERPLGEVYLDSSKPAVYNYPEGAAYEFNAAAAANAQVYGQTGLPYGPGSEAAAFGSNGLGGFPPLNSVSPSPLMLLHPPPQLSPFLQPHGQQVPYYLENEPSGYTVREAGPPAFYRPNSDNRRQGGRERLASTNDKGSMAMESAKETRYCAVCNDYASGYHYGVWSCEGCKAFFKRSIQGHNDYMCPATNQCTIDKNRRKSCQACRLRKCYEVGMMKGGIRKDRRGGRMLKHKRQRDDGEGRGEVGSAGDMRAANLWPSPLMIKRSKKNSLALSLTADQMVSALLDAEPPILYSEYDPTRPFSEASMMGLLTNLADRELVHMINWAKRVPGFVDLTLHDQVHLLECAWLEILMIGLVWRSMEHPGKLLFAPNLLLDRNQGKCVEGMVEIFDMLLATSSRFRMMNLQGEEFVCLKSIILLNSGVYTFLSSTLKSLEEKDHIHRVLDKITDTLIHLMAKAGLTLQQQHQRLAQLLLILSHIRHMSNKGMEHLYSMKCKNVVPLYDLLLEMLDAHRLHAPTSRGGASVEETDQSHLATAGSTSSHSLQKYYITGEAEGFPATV

pIC50 (Glucocorticoid receptor): 5.16
pIC50 (Estrogen receptor): 5.24
SMILES: CC(=O)S[C@@H]1CC2=CC(=O)CC[C@]2(C)[C@H]2CC[C@@]3(C)[C@@H](CC[C@@]34CCC(=O)O4)[C@H]12 [SPIRONOLACTONE]
